A short description of series [1]: pKa by ultraviolet spectrophotometric determination in water. The class given is physicochemical.
Another series concerns the target T1, human leukocyte elastase (Homo sapiens, UniProt P08246).
T1 sequence (P08246 30-267): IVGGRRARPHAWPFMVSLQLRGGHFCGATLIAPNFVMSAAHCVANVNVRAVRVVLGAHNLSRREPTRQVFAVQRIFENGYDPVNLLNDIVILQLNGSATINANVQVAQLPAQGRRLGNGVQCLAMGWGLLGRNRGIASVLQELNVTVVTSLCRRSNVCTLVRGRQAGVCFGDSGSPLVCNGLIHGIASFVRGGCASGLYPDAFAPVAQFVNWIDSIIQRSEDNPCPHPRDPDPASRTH
The experiment in a line: Inhibition of human leukocyte elastase, in vitro (Ki* = koff/kon). It counts as biochemical. As to conditions: Ki* = koff/kon (rate of reactivation divided by rate of inactivation of the enzyme); calculated from measured koff and kon.

Series [2] in a line: pKa determination by titration in water. The class given is physicochemical.

Method for human leukocyte elastase: Ki*, which is defined as the rate of reactivation of the enzyme divided by the rate of inactivation of the enzyme (koff/on), was therefore determined instead. The values of koff and kon were measured and Ki* was then calculated.
The value of kon was determined by measuring the enzyme activity of an aliquot of the enzyme as a function of the time after addition of the test compound (inhibitor). […] The value of kon was then obtained by the equation kon = kobs[I] wherein [I] is the concentration of the inhibitor. The value of koff was similarly determined, and Ki* was then obtained by the equation Ki* = koff/kon.

As for `NC(=O)c1nn[nH]c1C(N)=O` [1,2,3-triazole-4,5-dicarboxamide], the pKa in series [1] worked out at 5.3.

Take `COc1cc(C(C)C)c2c(c1)S(=O)(=O)N(Cn1nnc(S(=O)(=O)C(C)(C)C)c1S(=O)(=O)C(C)(C)C)C2=O` [Example 1, 2-[4,5-di(t-butylsulfonyl)-1,2,3-triazol-1-yl]methyl-4-isopropyl-6-methoxysaccharin]: at human leukocyte elastase, the Ki was 0.024 nM.

Take `N#Cc1nn[nH]c1C#N` [1,2,3-triazole-4,5-dinitrile]: the pKa in series [2] is 1.6.

In series [1], `Sc1nnnn1-c1ccccc1` [1-phenyltetrazole-5-thiol] displayed a pKa of 2.9.

As for `COC(=O)c1nn[nH]c1C(=O)OC` [1,2,3-triazole-4,5-dicarboxylic acid dimethyl ester], the pKa in series [2] turned out to be 4.4.

For the compound `COc1cc(C(C)C)c2c(c1)S(=O)(=O)N(COC(=O)c1c(Cl)ccc(OCCN3CCOCC3)c1Cl)C2=O` [Example 2, 2-{2,6-dichloro-3-[2-(4-morpholinylethoxy)]benzoyloxymethyl}-4-isopropyl-6-methoxysaccharin], the Ki on human leukocyte elastase was 0.014 nM.
